Source: ChEMBL document CHEMBL5729608, “Oxazolidinone antibiotic compounds and process of preparation” (2023)

Molecular target: Voltage-gated inwardly rectifying potassium channel KCNH2 (Homo sapiens, UniProt Q12809)
Assay: hERG Inhibition Assay: Compounds were solubilised to 100 mM in DMSO before dilution in HBPS to 300 μM. 6-Point concentration-response curves were generated using 3.16-fold serial dilutions from the top test concentration. Procedure: Electrophysiological recordings were made from a Chinese Hamster Ovary cell line stably expressing the full-length hERG potassium channel. Single cell ionic currents were measured in whole-cell patch clamp configuration at room temperature (21-23° C.) using the QPatch HTX platform (Sophion). Intracellular solution contained (mM): 120 KF, 20 KCl, 10 EGTA, 10 HEPES and was buffered to pH 7.3. The extracellular solution (HEPES-buffered physiological saline, HBPS) contained (mM): 145 NaCl, 4 KCl, 2 CaCl2, 1 MgCl2, 10 HEPES, 10 glucose, buffered to pH7.4. Cells were clamped at a holding potential of −80 mV. Cells were stepped to +20 mV for 2 s then −40 mV for 3s before returning to the holding potential. This sweep was repeated 10 times at 10 s intervals. hERG currents were measured from the tail step and referenced to the holding current.

Chain of Voltage-gated inwardly rectifying potassium channel KCNH2 (Q12809 whole entry): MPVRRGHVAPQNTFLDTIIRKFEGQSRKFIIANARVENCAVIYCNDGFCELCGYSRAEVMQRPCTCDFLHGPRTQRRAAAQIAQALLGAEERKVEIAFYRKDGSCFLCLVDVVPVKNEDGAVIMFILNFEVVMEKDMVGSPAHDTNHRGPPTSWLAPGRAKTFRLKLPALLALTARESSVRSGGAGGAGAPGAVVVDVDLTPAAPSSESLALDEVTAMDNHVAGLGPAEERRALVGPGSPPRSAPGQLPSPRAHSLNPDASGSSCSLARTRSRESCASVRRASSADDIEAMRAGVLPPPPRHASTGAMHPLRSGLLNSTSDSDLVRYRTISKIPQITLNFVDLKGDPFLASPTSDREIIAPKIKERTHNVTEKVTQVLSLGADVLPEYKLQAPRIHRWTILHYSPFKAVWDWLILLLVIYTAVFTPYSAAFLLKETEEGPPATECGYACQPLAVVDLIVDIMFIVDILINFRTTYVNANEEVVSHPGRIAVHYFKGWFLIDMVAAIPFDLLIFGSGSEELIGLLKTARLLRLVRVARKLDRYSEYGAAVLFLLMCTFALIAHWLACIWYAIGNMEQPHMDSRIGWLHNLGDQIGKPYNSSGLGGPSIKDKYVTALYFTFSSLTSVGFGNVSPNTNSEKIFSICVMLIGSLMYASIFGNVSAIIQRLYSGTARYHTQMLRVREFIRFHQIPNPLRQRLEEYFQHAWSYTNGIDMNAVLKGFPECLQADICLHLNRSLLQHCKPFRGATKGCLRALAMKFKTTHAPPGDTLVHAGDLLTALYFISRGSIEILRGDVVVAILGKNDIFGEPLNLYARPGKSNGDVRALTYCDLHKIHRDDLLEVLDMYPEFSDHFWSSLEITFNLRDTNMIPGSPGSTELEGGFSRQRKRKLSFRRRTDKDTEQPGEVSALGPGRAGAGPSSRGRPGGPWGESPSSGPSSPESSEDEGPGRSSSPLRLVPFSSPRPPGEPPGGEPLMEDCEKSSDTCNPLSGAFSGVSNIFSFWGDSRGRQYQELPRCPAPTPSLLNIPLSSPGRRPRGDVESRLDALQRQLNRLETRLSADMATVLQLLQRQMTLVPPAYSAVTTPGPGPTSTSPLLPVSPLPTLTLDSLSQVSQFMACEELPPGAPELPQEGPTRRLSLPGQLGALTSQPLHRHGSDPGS

Cn1c(=O)cnc2cc(F)c(OCCNC[C@H]3CN(c4cnc5c(n4)NC(=O)CO5)C(=O)O3)nc21
IC50: 98 µM
